# Patent publication US5902794A (priority 1997, dated 1999)
# Entries after “also recorded” stand apart in the source; their conditions may differ. Like-named read-outs stand apart in the source and are kept apart here.
# Columns and labels:
# [1] = system: DMBA-induced mammary carcinomas; test: in vivo growth of DMBA-induced mammary carcinomas in rats; parameters: species or system rat; conditions: DBcAMP treatment
# Method: […] |DMBA-induced mammary carcinomas in rats […] | 10 mg. cholesterol), was implanted on day 0 and day 14.
# [2] = system: R^I cAMP receptor protein (MDA-MB-231); test: photoaffinity labelling of R^I cAMP receptor protein, MDA-MB-231; format: cell-based, human; conditions: 1 mM, 3 days; control 1.0
# Method: (§1) M is marker proteins of known molecular weight.
# (§2) The incubations were carried out at 23° C. for 60 minutes in 96-well immunoplates. The reaction mixtures were then irradiated for 30 seconds at 254 nm, placing a Mineralite UVS-11 hand lamp directly onto the plate. The samples were mixed with 25 microliters of 3× sample buffer (3% SDS, 15% beta-mercaptoethanol, 30 mM Tris, 30% glycerol, 1% bromophenol blue saturated solution), boiled for 3 minutes, and centrifuged at 700×g for five minutes. The samples containing 50-100 micrograms of protein were subjected to 0.05% SDS-12% PAGE. The gels were fixed, dried, and exposed to X-ray films overnight. The protein concentrations were determined by the method of Lowry et al., (J. Biol. Chem. 193: 265-275, 1951) with bovine serum albumin as standard.
# (§3) The levels of the receptor proteins are expressed relative to the R^I level in the untreated control cells of MDA-MB-231 and LS-174T, which are each set equal to 1.0 O.D.; the scale was expanded to differentiate the lower intensity bands.
# [3] = system: R^I and R^II cAMP receptor proteins in breast (MDA-MB-231) and colon (LS-174T) cancer cells; test: R^I and R^II cAMP receptor protein levels in breast and colon cancer lines (FIG. 6); format: cell-based, human; conditions: DBcAMP 1 mM
# Method: as §1, §2
# [4] = system: R^I cAMP receptor protein (Molt-4); test: R^I cAMP receptor protein in Molt-4 leukemic cells; format: cell-based, human; conditions: 1 mmol/L, three days
# From the text: (§4) M marker proteins of known molecular weight. […] The resulting supernatants were used as cell lysates. […] ND=nondetectable.
# [5] = system: cultured human fibroblasts; conditions: cited from earlier work
# [6] = system: R^II cAMP receptor protein (MDA-MB-231); test: photoaffinity labelling of R^II cAMP receptor protein, MDA-MB-231; format: cell-based, human; conditions: 1 mM, 3 days; relative to control R^I
# Method: as §1, §2, §3
# [7] = system: transplantable DMBA-1 and MNA-2 rat mammary carcinomas; test: short-term assays with transplantable rat mammary carcinomas; format: in vivo; conditions: DB-cAMP pellet
# [8] = system: c-myc protein; test: c-myc protein level, Western blotting (FIG. 9B); format: cell-based, human; conditions: 1 mmol/L, three days
# Method: The cells were grown in suspension culture in RPMI 1640 medium supplemented with 10% fetal bovine serum, penicillin (50 U/ml), streptomycin ([…]), 10 mmol/L HEPES buffer, and extra glutamine. […] Surface antigen analysis of HL-60 cells was performed by flow cytometry using a panel of monoclonal antibodies reactive with either myeloid cells or monocytic cells. Terminal deoxynucleotidyl transferase (TdT) was assayed by an immunoperoxidase method using a TdT fluorescence kit. Western blotting of c-myc protein was performed using c-myc antibody 15206D11 (Scripps Clinic and Research Foundation, LaJolla, Calif.).
# as §4
# [9] = system: neuroblastoma cells; conditions: conflicting studies; cited from earlier work
# [10] = system: MDA-MB-231; test: growth of MDA-MB-231 cells; format: cell-based; conditions: Homo sapiens, MDA-MB-231, 72 h; 1 mM, 3 days
# Method: as §1
# (§5) All breast cancer cell lines were grown in IMEM supplemented with 10% fetal bovine serum, 20 mM HEPES, penicillin-streptomycin, and extra glutamine. Colon carcinoma cell lines were grown in EMEM supplemented with 10% FBS, EMEM, NEAA, HEPES 20 mM, extra glutamine, and penicillin-streptomycin. The cells were grown at 37° C. in humidified incubators in an atmosphere of 5% CO2.
# (§6) For cell growth experiments, 2-3×10^5 cells/60 mm dish were seeded, and 24 hours later (Day 0), the medium was removed, and fresh medium and the additives were added then and every 48 hours thereafter The compounds of the present invention were added using 100× concentrated stock solutions. At desired times, cell counts in duplicate were performed on a Coulter counter after harvesting the cells with gentle trypsinization.
# [11] = system: hormone-dependent mammary tumors / DMBA-induced mammary carcinomas; conditions: cited from earlier work
# [12] = system: DMBA-1; test: growth of transplantable DMBA-1 rat mammary carcinoma; format: in vivo; conditions: pellet with 10 mg cAMP analogue, day 7
# Method: DMBA-1, a variant of primary hormonedependent DMBA tumor,
# hormoneindependent and transplantable.
# 8Cl-cAMP and DBcAMP were given as a 20mg pellet consisting of 10 mg of […]
# [13] = system: LS-174T; test: growth of LS-174T cells; format: cell-based; conditions: Homo sapiens, LS174T, 72 h; 1 mM, 3 days
# Method: as §1, §5, §6
# [14] = system: p21 ras protein (MCF-7 cells); test: Western blotting of p21 ras protein in MCF-7 cells; format: cell-based, human; conditions: 500 microM
# Method: Western blotting of p21 protein was performed as described below. […] V is cell lysate from Ha-MuSV-transformed NIH3T3 clone 13-3B-4. M, marker proteins of known molecular weight.
# Cellular proteins present in cell extracts were separated by 12% SDS-PAGE and transferred to nitrocellulose sheets in transfer buffer (25 mM Tris, 192 mM glycine, 20% methanol, pH 7.4). Nitrocellulose sheets were washed and first incubated with 3% bovine serum albumin in NTE-NP40 (50 mM Tris-HCl, pH 7.5, 150 mM NaCl, 2 mM EDTA, 0.1% Nonidet P-40) for three hours at 37° C. and then sequentially incubated with medium containing p21 monoclonal antiserum Y13-259 directed against the Ha-MuSV-encoded p21 for sixteen hours at 4° C., rabbit anti-rat IgG for 2.5 hours in an ice-water bath, and 5×10^5 cpm/ml ^125 I-protein A for one hour in an ice-water bath. The nitrocellulose sheets were air-dried and exposed to Kodak XAR film for 12-36 hours at -20° C. Comparison of the resulting autoradiograms with others in which normal rat serum was substituted for p21 monoclonal antibody permitted identification of p21. To provide a reference p21, cell lysates were prepared from NIH 3T3 clone 13-3B-4 that had been transfected with Ha-MuSV DNA.
# The levels of p21 protein are expressed relative to the p21 level in the untreated control cells, which is set equal to 1.0 O.D.
# [15] = system: breast (MCF-7) and (LS-174T) colon cancer cell lines; test: growth inhibition of breast (MCF-7) and colon (LS-174T) cancer cell lines; format: cell-based, human; conditions: 50 micromolar
# [16] = system: hormone-dependent breast cancer lines; conditions: millimolar concentrations; previously reported; cited from earlier work
# [17] = system: human oat cell lung carcinoma cells; conditions: in vitro; cited from earlier work
# [18] = system: R^I cAMP receptor protein (LS-174T); test: photoaffinity labelling of R^I cAMP receptor protein, LS-174T; format: cell-based, human; conditions: 1 mM, 3 days; control 1.0
# Method: as §1, §2, §3
# [19] = system: R^II cAMP receptor protein (LS-174T); test: photoaffinity labelling of R^II cAMP receptor protein, LS-174T; format: cell-based, human; conditions: 1 mM, 3 days; relative to control R^I
# Method: as §1, §2, §3
# [20] = system: Molt-4; test: growth inhibition of Molt-4; format: cell-based, human
# [21] = system: spindle cell sarcoma with multiple metastasis; conditions: cited from earlier work
structure (smiles),measurement,setting,value
"CCCC(=O)Nc1ncnc2c1ncn2[C@@H]1O[C@@H]2COP(=O)(O)O[C@H]2[C@H]1OC(=O)CCC [DBcAMP, N^6,O^2' -dibutyryl-cAMP]","tumor growth, in words",[1],only arrests this tumor growth without producing regression
same,R^I relative level,[2],1.0 ± 0.1
same,"R^I and R^II receptor levels, in words",[3],remained unchanged; also recorded: did not appreciably affect the R^I or R^II receptor levels
same,"R^I receptor protein, in words",[4],remained without appreciable change
same,DNA synthesis,[5]; added during first eight hours after serum addition,subsequent DNA synthesis was not delayed
same,DNA synthesis,[5]; added more than eight hours after serum addition,inhibitory
same,R^II relative level,[6],0.07 ± 0.01
same,sensitivity of tumors,[7],completely resistant
same,"c-myc protein level, in words",[8],did not affect the c-myc protein level
same,tumorigenicity,[9],reported to be decreased; also recorded: unaltered
same,activity at 1000 µM,[10],100%
same,cAMP binding and cAMP-dependent protein kinase activity,"[11]; cytosol and nuclei, during growth arrest",increase
same,estrogen binding,[11]; during growth arrest,estrogen binding decreases
same,translated p21 protein,[11]; preceding regression,sharp reduction
same,tumor regression,"[11]; rat, in vivo",regression of hormone-dependent mammary tumors
same,Change in mean tumor volume,[12],2.60 cm^3
same,Change in mean tumor volume (%),[12]; none = 100,99%
same,activity at 1000 µM,[13],85%
same,"p21 level, in words",[14],slight reduction in p21 level
same,"growth inhibition, in words",[15],no growth inhibition
same,"growth inhibition, hormone-dependent breast cancer lines",[16],growth inhibition only in the hormone-dependent breast cancer lines
same,differentiation,[17],differentiated into neurone-like cells
same,R^I relative level,[18],0.80 ± 0.10
same,R^II relative level,[19],0.15 ± 0.02
same,"50% growth inhibition, in words",[20],50% growth inhibition could not be obtained
same,tumor size,"[21]; 3-6 mg/kg i.v. daily over five hours, days 1-9 and 47-56",plateaued and even decreased during both infusion periods
same,histology of tumors,"[21]; biopsies days 2, 14, 60",evidence of differentiation during the DBcAMP infusion
